From patent US8106033B2, “Composition and methods for the treatment of proliferative diseases” (priority 2005, dated 2012)
“Also recorded” adds a separate entry of the source. Where two headings read alike, the source gives them in different places.

Legend:
[1] = tested on: MCF-7 tumor cells (human breast cancer cell line)
Procedure: Estradiol pellets (1 mg) were implanted interscapularly into twenty female athymic nude mice (NCR-nu/nu, Taconic) mouse. After 24 hours 1×10^7 MCF-7 tumor cells (breast cancer cell line) were implanted in the mammary fat pad of each mouse. The tumors produced by the tumor cell injections were allowed to grow for a period of 10-15 days until the tumors reached a size from 200 to 250 mm^3. The mice were then divided into four test groups (N=5) which were treated every other day by IP injections with: (a) (E)-2-(5-((2,4,6-trimethoxystyrylsulfonyl)methyl)-2-methoxyphenylamino)acetic acid sodium salt (200 mg/kg) dissolved in PBS; (b) doxorubicin (2.5 mg/kg) dissolved in PBS; (c) a combination of (E)-2-(5-((2,4,6-trimethoxystyrylsulfonyl)methyl)-2-methoxyphenylamino)acetic acid sodium salt (200 mg/kg) and doxorubicin (2.5 mg/kg) dissolved in PBS; or (d) PBS vehicle containing no drug. […] Body weights are plotted in FIG. 3(b) as the mean of the measured weights of all the animals in each dose group. Tumor volume was determined by measuring each tumor in two dimensions using traceable digital Vernier calipers. The tumor volume was calculated for each tumor using the equation: V=L×(S^2)π/6. The tumor volume is plotted in FIG. 3(a) as the mean tumor volume all animals in each particular dose group.

[2] = tested on: MCF-7 tumor cells (human breast cancer cell line); test: Doxorubicin toxicity and lethality in MCF-7 tumor-bearing nude mice (Example 9); type: in vivo
Procedure: Estradiol pellets (1 mg) were implanted interscapularly into ten female athymic nude mice (NCR-nu/nu, Taconic) mouse. […] Body weights for the individual animals of group (a) are plotted in FIG. 4(a) and body weights for the individual animals of group (b) are plotted in FIG. 4(b).

[3] = tested on: BEL-7402 tumor cells (human hepatoma cell line); type: in vivo; details: BEL-7402 xenograft, IP every other day, Compound A 200 mg/kg, oxaliplatin 5 mg/kg, alone or combined
Procedure: Twenty female athymic nude mice (NCR-nu/nu, Taconic) were injected subcutaneously with 1×10^7 BEL-7402 tumor cells (human hepatoma cell line). The tumors produced by the tumor cell injections were allowed to grow for a period of 10-14 days until the tumors reached a size from 200 to 250 mm^3. The mice were then divided into four test groups (N=5) which were treated every other day by intraperitoneal (IP) injections of: (a) (E)-2-(5-((2,4,6-trimethoxystyrylsulfonyl)methyl)-2-methoxyphenylamino)acetic acid sodium salt (Compound A) (200 mg/kg) dissolved in PBS; (b) oxaliplatin (5 mg/kg); (c) a combination of (E)-2-(5-((2,4,6-trimethoxystyrylsulfonyl)methyl)-2-methoxyphenylamino)acetic acid sodium salt (200 mg/kg) dissolved in PBS and oxaliplatin (5 mg/kg), or (d) PBS vehicle containing no drug. […] Body weights are plotted in FIG. 1(b) as the mean of the measured weights of all the animals in each dose group. Tumor volume was determined by measuring each tumor in two dimensions using traceable digital Vernier calipers (Fisher Scientific International Inc., Liberty Lane, Hampton, N.H. 03842). The tumor volume was calculated for each tumor using the equation: V=L×(S^2)π/6, wherein L is the longer, and S is the shorter of the two measured dimensions. […]

[4] = tested on: DU145 tumor cells (human prostate cancer cell line); test: DU145 tumor xenograft in nude mice (Example 7); type: in vivo; details: for effect on tumor growth (mean tumor volume): IP every other day, Compound A 200 mg/kg, oxaliplatin 5 mg/kg, alone or combined
Procedure: At this time, animals were divided into four groups (N=5) and were treated every other day by IP injections with: […] (b) oxaliplatin (5.0 mg/kg); […] All animals were examined for signs of toxicity. Tumor volumes and body weights were determined weekly. […] The tumor volume is plotted in FIG. 2 as the mean tumor volume±standard error of the mean (SEM) for all animals in each particular dose group.

[5] = MCF-7 xenograft, IP every other day, Compound A 200 mg/kg, doxorubicin 2.5 mg/kg, alone or combined

SMILES | effect on tumor growth (mean tumor volume) [1, 5] | tumor size when the animals had died ([1]; doxorubicin 2.5 mg/kg alone, by the 35th day) [mm^3] | animals with major weight loss immediately preceding death ([2]; doxorubicin 1 mg/kg IP every other day alone) | body weight change ([2]; doxorubicin 1 mg/kg IP every other day, alone or with Compound A 200 mg/kg) | survival rate ([2]; doxorubicin 1 mg/kg IP every other day, alone or with Compound A 200 mg/kg, N=5) [%] | effect on tumor growth (mean tumor volume) ([3]; sodium salt) | effect on tumor growth (mean tumor volume) [4] | time at which tumors were of comparable volume to control tumors after 28 days ([4]; single agents) [days] | survival of the animals [1, 5] [days] | effect on tumor growth (mean tumor volume) ([1]; MCF-7 xenograft, IP every other day, Compound A 200 mg/kg, doxorubicin 2.5 mg/kg, alone or combined, sodium salt) | effect on tumor growth (mean tumor volume) [3]
COc1cccc2c1C(=O)c1c(O)c3c(c(O)c1C2=O)C[C@@](O)(C(=O)CO)C[C@@H]3O[C@H]1C[C@H](N)[C@H](O)[C@H](C)O1 [doxorubicin] | significantly slowed the growth of the tumors | 500 | 4 of the 5 | initial suggestive weight gain | 20 |  |  |  |  |  | 
COc1cc(OC)c(/C=C/S(=O)(=O)Cc2ccc(OC)c(NCC(=O)[O-])c2)c(OC)c1.[Na+] [(E)-2-(5-((2,4,6-trimethoxystyrylsulfonyl)methyl)-2-methoxyphenylamino)acetic acid sodium salt] |  |  |  |  |  | significant greater reduction in tumor growth; also recorded: slowed the growth of the tumor | significant therapeutic response | 63 | 84 | significantly slowed the growth of the tumors; also recorded: comparable reduction in tumor growth | 
O=C1[O][Pt]2([NH][C@@H]3CCCC[C@H]3[NH]2)[O]C1=O [oxaliplatin] |  |  |  |  |  |  | significant therapeutic response |  |  |  | significant greater reduction in tumor growth; also recorded: slowed the growth of the tumor
